Read-outs that look alike come from different tables or passages of the source.
System: MIAPACA2 cells
Test: Proliferation assay (CellTiter-Glo, 72 h) in MIAPACA2 cells
Assay type: cell-based, human
Settings: for IC90: MIAPACA2, 72 h; for potency relative to non-fluorinated analog: IC90 without copper, analog of same 4′ amine series (HCT1, HCT6 or HCT11); for increase in potency under copper supplementation versus non-copper-supplemented IC90: 20 μM CuCl2
Description: IC90 values against MIAPACA2 cells was first determined in normal cell culture conditions (DMEM media and 10% FBS). Compounds were separated into three series (4′ primary amines, 4′ secondary amines, 4′ tertiary amines) to reflect the relative degrees of 4′ amine methylation. […] (Refs 41, 42).
HCT compounds are known to be copper chelators. (Ref. 32). To test whether the compounds described herein were similarly potentiated, the IC90 (+Cu IC90) values were determined against MIAPACA2 cells in media supplemented with physiologically relevant levels of copper (DMEM media+10% FBS+20 μM CuCl2). MIAPACA2 cells were treated with the indicated HCT±20 μM Cu(II) for 72 hours, then cell viability was measured with CellTiter-Glo to determine IC90 values.
(§1) Proliferation assay: Cells were plated in 384-well plates (500 cells/well for adherent cell lines in 30 μl volume). Drugs were serially diluted to the desired concentrations and an equivalent volume of DMSO was added to vehicle control. Following 72 h incubation, ATP content was measured using CellTiter-Glo reagent according to manufacturer's instructions (Promega, CellTiter-Glo Luminescent Cell Viability Assay), and analyzed by SpectraMax luminometer (Molecular Devices). IC50 and IC90 values, concentrations required to inhibit proliferation by 50% and 90% respectively compared to DMSO treated cells, were calculated using Prism 6.0 h (Graphpad Software).
as §1, with “assay.” for “assay:”, “Software). The 430-member protein kinase inhibitor library used for the chemical genomics screen was purchased from Selleckchem, Catalog No. L1200.” for “Software).”

[1] = Homo sapiens, MIA PaCa-2, 72 h, DMEM + 10% FBS, no copper supplementation, read-out: IC90
[2] = DMEM + 10% FBS + 20 μM CuCl2, read-out: +Cu(II) IC90

Row | Compound | IC90 [1] | potency relative to non-fluorinated analog | IC90 [2] | increase in potency under copper supplementation versus non-copper-supplemented IC90 | increase in potency under copper supplementation versus non-copper-supplemented IC90 (listed as 6) | effect on proliferation (20 μM Cu(II) alone) | increase in potency under copper supplementation versus non-copper-supplemented IC90 (listed as 11)
1 | NC(=S)N/N=C/c1ncc(F)c2ccccc12 [HCT2, (E)-2-((4-Fluoroisoquinolin-1-yl)methylene)hydrazine-1-carbothioamide] | 24.6 µM | did not show an increase in potency | 2.06 µM | – | – | – | –
2 | CNc1c(F)ccc2c(/C=N/NC(=S)N(C)C)nccc12 (mixture of isomers) [HCT14, (E)-2-((6-Fluoro-5-(methylamino)isoquinolin-1-yl)methylene)-N,N-dimethylhydrazine-1-carbothioamide and (Z)-2-((6-Fluoro-5-(methylamino)isoquinolin-1-yl)methylene)-N,N-dimethylhydrazine-1-carbothioamide] | 0.272 µM | – | 0.0384 µM | – | – | – | –
3 | NC(=S)N/N=C/c1nccc2cc(F)ccc12 [HCT3, (E)-2-((6-Fluoroisoquinolin-1-yl)methylene)hydrazine-1-carbothioamide] | 5.44 µM | 3 fold | 2.04 µM | – | – | – | –
4 | CNC(=S)N/N=C/c1ncc(F)c2ccccc12 [HCT7, (E)-2-((4-Fluoroisoquinolin-1-yl)methylene)-N-methylhydrazine-1-carbothioamide] | 2.08 µM | significantly more potent | 0.114 µM | – | – | – | –
5 | CNC(=S)N/N=C/c1nccc2c(NC)cccc12 [HCT9, E)-N-Methyl-2-((5-(methylamino)isoquinolin-1-yl)methylene)hydrazine-1-carbothioamide and (Z)—N-Methyl-2-((5-(methylamino)isoquinolin-1-yl)methylene)hydrazine-1-carbothioamide] | 4.24 µM | – | 0.607 µM | significantly increased | – | – | –
6 | CNC(=S)N/N=C/c1nccc2ccccc12 [HCT6, (E)-2-(isoquinolin-1-ylmethylene)-N-methylhydrazine-1-carbothioamide, reference compound] | 18.7 µM | – | 0.331 µM | 60 fold | significantly increased | – | –
7 | CNC(=S)N/N=C/c1nccc2cc(F)ccc12 [HCT8, (E)-2-((6-Fluoroisoquinolin-1-yl)methylene)-N-methylhydrazine-1-carbothioamide] | 4.08 µM | significantly more potent | 0.233 µM | – | – | – | –
8 | [Cl][Cu][Cl] [Cu(II), CuCl2] | – | – | – | – | – | did not affect proliferation at all | –
9 | CNc1cccc2c(/C=N/NC(=S)N(C)C)ncc(F)c12 (mixture of isomers) [HCT15, (E)-2-((4-Fluoro-5-(methylamino)isoquinolin-1-yl)methylene)-N,N-dimethylhydrazine-1-carbothioamide and (Z)-2-((4-Fluoro-5-(methylamino)isoquinolin-1-yl)methylene)-N,N-dimethylhydrazine-1-carbothioamide] | 0.327 µM | – | 0.0423 µM | – | – | – | –
10 | CN(C)C(=S)N/N=C/c1ncc(F)c2ccccc12 (mixture of isomers) [HCT12, (E)-2-((4-Fluoroisoquinolin-1-yl)methylene)-N,N-dimethylhydrazine-1-carbothioamide and (Z)-2-((4-Fluoroisoquinolin-1-yl)methylene)-N,N-dimethylhydrazine-1-carbothioamide] | 0.274 µM | roughly 110 fold | 0.0266 µM | – | – | – | –
11 | CNc1cccc2c(/C=N/NC(N)=S)nccc12 [HCT4, (E)-2-((5-(Methylamino)isoquinolin-1-yl)methylene)hydrazine-1-carbothioamide, reference compound] | 11.5 µM | – | 5.33 µM | – | – | – | –
12 | NC(=S)N/N=C/c1nccc2c(N)cccc12 [HCT5, (E)-2-((5-Aminoisoquinolin-1-yl)methylene)hydrazine-1-carbothioamide, reference compound] | 40.5 µM | – | 71.1 µM | attenuated | – | – | –
13 | CNC(=S)N/N=C/c1nccc2c(N)cccc12 (mixture of isomers) [HCT10, 2-((5-Aminoisoquinolin-1-yl)methylene)-N-methylhydrazine-1-carbothioamide and (Z)-2-((5-Aminoisoquinolin-1-yl)methylene)-N-methylhydrazine-1-carbothioamide] | 11.2 µM | – | 7.87 µM | – | – | – | –
14 | NC(=S)N/N=C/c1nccc2ccccc12 [HCT1, (E)-2-(isoquinolin-1-ylmethylene)hydrazine-1-carbothioamide, reference compound] | 18.1 µM | – | 2.21 µM | 10 fold | – | – | –
15 | CN(C)C(=S)N/N=C/c1nccc2ccccc12 (mixture of isomers) [HCT11, (E)-2-(Isoquinolin-1-ylmethylene)-N,N-dimethylhydrazine-1-carbothioamide and (Z)-2-(Isoquinolin-1-ylmethylene)-N,N-dimethylhydrazine-1-carbothioamide] | 29.6 µM | – | 0.0737 µM | 400 fold | – | – | significantly increased

— US12528774B2, “Thiosemicarbazone compounds and uses thereof” (The Regents of the University of California, priority 2019, dated 2026)
